Results from US20050282258A1 (priority 2004, published 2005).
Where two headings read alike, the source gives them in different places.

Key:
yggA transcription = assay type: cell-based, Escherichia coli; conditions: for Beta-galactosidase specific activity (units) in medium with 1 mM arginine / Beta-galactosidase specific activity (units) in medium with 1 mM lysine: glucose-minimal A medium, 37° C.; for transcription of the yggA gene upon supplementation of the culture medium: strains carrying the wild-type argP gene
[1] = test system: wild-type E. coli strain MC4100; assay: Canavanine tolerance of strains, growth in glucose-minimal A medium; assay type: cell-based, Escherichia coli; conditions: scored after 24 hours at 37° C.
[2] = strain GJ4748/pHYD956 (argR), Nil = 217
[3] = strain MC4100/pHYD926/pHYD956 (argP-S94L), Nil = 1557
[4] = strain MC4100/pHYD956, Nil = 20

N=C(N)NCCC[C@H](N)C(=O)O [arginine]
Beta-galactosidase specific activity (units) in medium with 1 mM arginine (yggA transcription; [2]): 424 units
Beta-galactosidase specific activity (units) in medium with 1 mM arginine (yggA transcription; [3]): 1514 units
Beta-galactosidase specific activity (units) in medium with 1 mM arginine (yggA transcription; [4]): 66 units
transcription of the yggA gene upon supplementation of the culture medium (yggA transcription): induced

N=C(N)NOCC[C@H](N)C(=O)O [canavanine]
transcription of the yggA gene upon supplementation of the culture medium (yggA transcription): induced
growth of MC4100 (canavanine tolerance) ([1]; 20 micrograms/ml of canavanine): resistant
growth of MC4100 (canavanine tolerance) ([1]; 65 micrograms/ml of canavanine in the presence of uracil at 40 micrograms/ml): sensitive

NC(=O)NCCC[C@H](N)C(=O)O [citrulline]
transcription of the yggA gene upon supplementation of the culture medium (yggA transcription): induced

NCCCC[C@H](N)C(=O)O [lysine]
Beta-galactosidase specific activity (units) in medium with 1 mM lysine (yggA transcription; [2]): 29 units
Beta-galactosidase specific activity (units) in medium with 1 mM lysine (yggA transcription; [3]): 1616 units
Beta-galactosidase specific activity (units) in medium with 1 mM lysine (yggA transcription; [4]): 14 units
transcription of the yggA gene upon supplementation of the culture medium (yggA transcription): substantially repressed
